Data on 31 molecules can be found in patent US20080234498A1, “Pyrovalerone Analogues and Therapeutic Uses Thereof” (PRESIDENT AND FELLOW OF HARVARD COLLEGE, priority 2003, published 2008).

For data set [1], the target named is dopamine transporter (DAT) (Homo sapiens, UniProt Q01959). Nature of the data set: Radioreceptor assay, inhibition of (3H)WIN 35,428 binding to the dopamine transporter. The text has this: Dysfunction of dopamine neurons has been implicated in several neuropsychiatric diseases. Imaging of the dopamine neurons offers important clinical information relevant to diagnosis and therapeutic treatments. Dopamine neurons produce dopamine, release the neurotransmitter and remove the released dopamine with a dopamine transporter protein. Compounds that bind to the dopamine transporter are effective measures of dopamine neurons and can be transformed into imaging agents for PET and for SPECT imaging (see, e.g., Example 70, infra, for use of PET imaging). In identifying a suitable compound for the dopamine transporter, an essential first step is to measure the affinity and selectivity of a candidate at the dopamine transporter. The affinity can be measured by conducting radioreceptor assays. A radiolabeled marker for the transporter, e.g., (^3H)WIN 35,428, is incubated with the unlabeled candidate and a source of the transporter, usually brain striatum. The effect of various concentrations of the candidate on inhibiting (^3H)WIN 35,428 binding is quantified. The concentration of the compound that inhibits 50% of (^3H)WIN 35,428 bound to the transporter (IC50 value) is used as a measure of its affinity for the transporter. A suitable range of concentrations of the candidate typically is about 1 nM up to about 100 nM, more preferably 1 to 10 nM.
Chain of dopamine transporter (DAT) (Q01959 whole entry, species assumed): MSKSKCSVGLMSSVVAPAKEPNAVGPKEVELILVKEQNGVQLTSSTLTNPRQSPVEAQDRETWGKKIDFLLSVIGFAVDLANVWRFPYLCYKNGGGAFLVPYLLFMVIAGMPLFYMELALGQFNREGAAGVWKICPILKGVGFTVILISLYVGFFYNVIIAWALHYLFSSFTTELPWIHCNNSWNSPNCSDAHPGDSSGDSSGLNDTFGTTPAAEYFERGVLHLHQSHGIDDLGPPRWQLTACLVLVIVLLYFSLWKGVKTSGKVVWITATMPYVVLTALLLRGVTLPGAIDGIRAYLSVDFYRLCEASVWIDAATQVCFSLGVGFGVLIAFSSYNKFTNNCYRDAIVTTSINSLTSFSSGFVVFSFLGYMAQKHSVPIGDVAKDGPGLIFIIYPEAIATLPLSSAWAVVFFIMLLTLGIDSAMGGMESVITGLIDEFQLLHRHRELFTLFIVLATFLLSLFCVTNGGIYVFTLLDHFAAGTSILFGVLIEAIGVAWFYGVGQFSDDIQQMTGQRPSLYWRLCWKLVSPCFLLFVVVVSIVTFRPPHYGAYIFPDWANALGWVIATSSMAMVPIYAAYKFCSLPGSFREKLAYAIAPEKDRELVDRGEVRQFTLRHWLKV
(§1) ^3H-WIN 35,428 (^3H-CFT, 2β-carbomethoxy-3β-(4-fluorophenyl)-N-^3H-methyltropane, 79.4-87.0 Ci/mmol) and ^3H-citalopram (86.8 Ci/mmol) is purchased from DuPont-New England Nuclear (Boston, Mass.). HPLC analyses are carried out on a Waters 510 system with detection at 254 nm on a Chiralcel OC column (flow rate: 1 mL/min).

The target in another data set is T1, dopamine transporter (Macaca mulatta, UniProt Q7JHP9).
T1 construct: occupy the dopamine transporter in living brain; from tissue; host or cells: living brain of rhesus monkeys (in vivo PET)
T1 sequence (Q7JHP9 1-620): as the sequence (Q01959 whole entry, species assumed) above, with V24M, I137V, P194S, S198G, D200N, S201G, S202P counted along it
The experiment in a line: Dopamine transporter occupancy by PET imaging with [11C]CFT. In kind it is in vivo, Rhesus monkeys. Conditions: for Brain entry and occupancy of DAT sites (in words): living brain, PET imaging, cerebellum as the negative control; for [11C]CFT with Compound (binding potential) / % Occupancy / % Occupancy, cerebellum levels considered background: rhesus monkey; for [11C]CFT with Compound (binding potential): compound intravenously, PET one hour after administration; for % Occupancy / % Occupancy, cerebellum levels considered background: i.v., one hour; for % Occupancy: from reduced [11C]CFT binding potential vs baseline; for % Occupancy, cerebellum levels considered background: reduced to levels of cerebellum = full occupancy. The procedure:
As the compounds of the invention are high affinity ligands for the dopamine transporter, we determined whether they occupy the dopamine transporter in living brain within 1 hour of administration. To monitor occupancy of the dopamine transporter, PET imaging was conducted with the high affinity dopamine transporter probe [11C]CFT ([11C]WIN 35,428). Rhesus monkeys were anesthetized with ketamine and xylazine and an indwelling intravenous catheter was placed in a leg vein. DAT density (binding potential) was acquired with [11C]CFT to obtain baseline levels. Immediately following completion of the imaging session, monkeys were administered the test compound intravenously via the indwelling catheter and PET imaging was conducted one hour after administration. Imaging data from the pre- and post-drug session were compared and occupancy was calculated on the basis of reduced [11C]CFT binding potential one hour or longer after administration of the compound. The following table (Table 1) summarizes pilot data from this study.

The target of data set [2] is serotonin transporter (SERT) (Homo sapiens, UniProt P31645). The experiment in a line: Radioreceptor assay, inhibition of (3H)citalopram binding to the serotonin transporter. The procedure:
The serotonin transporter is also detectable in the striatum, the brain region with the highest density of dopamine neurons and in brain regions surrounding the striatum. […] Therefore, a measure of probe affinity of the serotonin transport is conducted by assays paralleling the dopamine transporter assays.
as §1

Counter-ions that a name gives are not always drawn. Like-named read-outs stand apart in the source and are kept apart here. Marks after values point to notes of the source that are not given here. Bounds are passed on as bounds.

Chain of serotonin transporter (SERT) (P31645 whole entry, species assumed): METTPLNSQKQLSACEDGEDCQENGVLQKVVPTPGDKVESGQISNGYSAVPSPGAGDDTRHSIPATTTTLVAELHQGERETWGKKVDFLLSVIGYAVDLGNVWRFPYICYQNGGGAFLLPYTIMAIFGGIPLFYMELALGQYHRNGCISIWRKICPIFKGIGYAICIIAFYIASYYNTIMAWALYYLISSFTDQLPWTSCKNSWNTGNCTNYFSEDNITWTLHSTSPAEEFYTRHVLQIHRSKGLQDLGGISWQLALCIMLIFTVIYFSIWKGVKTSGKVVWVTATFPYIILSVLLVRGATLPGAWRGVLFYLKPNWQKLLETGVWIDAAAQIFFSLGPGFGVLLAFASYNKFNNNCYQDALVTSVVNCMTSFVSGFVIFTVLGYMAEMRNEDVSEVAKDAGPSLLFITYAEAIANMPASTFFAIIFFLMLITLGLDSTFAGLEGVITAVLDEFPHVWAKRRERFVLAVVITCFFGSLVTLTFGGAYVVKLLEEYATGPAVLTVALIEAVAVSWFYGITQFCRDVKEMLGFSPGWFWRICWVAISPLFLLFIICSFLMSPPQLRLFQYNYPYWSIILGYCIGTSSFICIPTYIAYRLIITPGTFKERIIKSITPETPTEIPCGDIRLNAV

With `CCCC(C(=O)c1ccc(-c2cccs2)cc1)N1CCCC1` (centres unmarked) (as salt: salt), the melting point (commonly the temperature, or range, at which the solid turns liquid) is 220 °C (dec.).
On the same count and under the same terms, in the case of `CCCC(C(=O)c1ccc(NC(C)=O)cc1)N1CCCC1` (centres unmarked) (as salt: salt) it was 195 °C (dec.); in that of `CCCC(C(=O)c1ccc([N+](=O)[O-])cc1)N1CCCC1` (centres unmarked) (as salt: salt), 189 °C (dec.); in that of `CCCC(C(=O)c1cccc(C)c1)N1CCCC1` (centres unmarked) (as salt: salt), 166 °C (dec.).
Same read-out and setting: in the case of `CCCC(C(=O)c1ccc(C(F)(F)F)cc1)N1CCCC1` (centres unmarked) (as salt: salt) it was 228 °C (dec.); in that of `CCCC(C(=O)c1ccc2ccccc2c1)N1CCCC1` (centres unmarked) (as salt: salt), 221 to 223 °C (dec.).
On the same count and under the same terms, under `CCCC(C(=O)c1ccc(I)cc1)N1CCCC1` (centres unmarked) (as salt: salt) stands 218 °C (dec.); under `Cc1ccc(C(=O)C(CC(C)C)N2CCCC2)cc1` (centres unmarked) (as salt: salt), 218 °C (dec.); under `CCCC(C(=O)c1ccc(OC)c(OC)c1)N1CCCC1` (centres unmarked) (as salt: salt), 177 °C (dec.).
For `CC#Cc1ccc(C(=O)C(CCC)N2CCCC2)cc1` (centres unmarked) (as salt: salt), the melting point was 231 °C (dec.).
Same read-out and setting: in the case of `CCCC(C(=O)c1ccc(F)cc1)N1CCCC1` (centres unmarked) (as salt: salt) it was 218 °C (dec.).
On the same count and under the same terms, in the case of `CCC(C(=O)c1ccc(Cl)c(Cl)c1)N1CCCC1` (centres unmarked) (as salt: salt) it was 211 °C (dec.); in that of `CCCC(C(=O)c1ccc(Cl)c(Cl)c1)N1CCCCC1` (centres unmarked) (as salt: salt), 202 °C (dec.); in that of `CCCC(C(=O)c1cccc(I)c1)N1CCCC1` (centres unmarked) (as salt: salt), 203 °C (dec.).
Still for that read-out and setting: in the case of `CCC(CC(=O)c1ccc(Cl)c(Cl)c1)N1CCCC1` (centres unmarked) (as salt: salt) it was 104 to 107 °C (dec.).
With `CCC(CC(=O)c1ccc(C)cc1)N1CCCC1` (centres unmarked) (as salt: salt), the melting point was 97 °C (dec.).
Same read-out and setting: under `CCCC(C(=O)c1ccc(O)c(O)c1)N1CCCC1` (centres unmarked) (as salt: salt) stands 181 to 182 °C.
In the case of `CCCC(C(=O)c1ccc(C#N)cc1)N1CCCC1` (centres unmarked) (as salt: salt), the melting point is 197 to 199 °C (dec.).
The same measure, in the same setting: under `C#CCC(C(=O)c1ccc(C)cc1)N1CCCC1` (centres unmarked) (as salt: salt) stands 178 °C (dec.); under `CCCC(C(=O)c1ccc(CO)cc1)N1CCCC1` (centres unmarked) (as salt: salt), 186 to 187 °C (dec.).
The same measure, in the same setting: under `CCCC(N1CCCC1)C(O)(Cc1ccccc1)c1ccc(C)cc1` (centres unmarked) (as salt: salt) stands 211 °C (dec.); under `C=CCC(C(=O)c1ccc(C)cc1)N1CCCC1` (centres unmarked) (as salt: salt), 196 °C (dec.).
Still for that read-out and setting: under `CCCC(C(=O)c1ccc(C(=O)OC)cc1)N1CCCC1` (centres unmarked) (as salt: salt) stands 202 °C (dec.).
Turning to `CCCC(C(=O)c1ccc(Cl)c(Cl)c1)N1CCCC1` (centres unmarked) (as salt: salt) [Compound O-2390, 2-Pyrrolidin-1-yl-1-(3,4-Dichloro-phenyl)-pentan-1-one], the melting point is 195 °C (dec.).
Same read-out and setting: in the case of `CCCC(C(=O)c1ccc(Br)cc1)N1CCCC1` (centres unmarked) (as salt: salt) [Compound O-2419, 2-Pyrrolidin-1-yl-1-(4′-bromo-phenyl)-pentan-1-one] it was 200 °C (dec.).
On the same count and under the same terms, in the case of `CCCC(C(=O)c1ccc(C)cc1)N1CCCC1` (racemic) (as salt: salt) [Compound O-2371, 2-Pyrrolidin-1-yl-1-p-tolyl-pentan-1-one] it was 180 °C (dec.).
Turning to `CCCC(C(=O)c1ccc(C)cc1)N1CCCC1` (racemic) [Compound O-2371, 2-Pyrrolidin-1-yl-1-p-tolyl-pentan-1-one], the IC50 in data set [1] turned out to be 8 nM. Moreover, at dopamine transporter, the “Brain entry and occupancy of DAT sites (in words)” value is “most efficient in entering the brain and occupying the majority of DAT sites”; the “[11C]CFT with Compound (binding potential)” value (“[11C]CFT with Compound” for short) came to 0.4551; the “% Occupancy” value worked out at 74%; the “% Occupancy, cerebellum levels considered background” value is recorded as 100* %.
As for `CCCC(C(=O)c1ccccc1)N1CCCC1` (centres unmarked) [Compound O-2387, 2-Pyrrolidin-1-yl-phenyl-pentan-1-one], the IC50 in data set [1] (affinity column of the PET occupancy table, read-out: DAT Affinity) worked out at 13 nM. Further, on dopamine transporter, the “[11C]CFT with Compound” value is 0.7885 and the “% Occupancy” value is given as 64%.
On to `CCCC(C(=O)c1ccc(Cl)c(Cl)c1)N1CCCC1` (centres unmarked) [Compound O-2390, 2-Pyrrolidin-1-yl-1-(3,4-Dichloro-phenyl)-pentan-1-one], for which the IC50 in data set [1] worked out at 8 nM. For the same molecule, on dopamine transporter, the “[11C]CFT with Compound” value stood at 0.5898 and the “% Occupancy” value was found to be 56%.
In turn, `CCCC(C(=O)c1ccc(Br)cc1)N1CCCC1` (centres unmarked) [Compound O-2419, 2-Pyrrolidin-1-yl-1-(4′-bromo-phenyl)-pentan-1-one] returned an IC50 in data set [1] of 8 nM. Also, on dopamine transporter, the “[11C]CFT with Compound” value was 1.6025 and the “% Occupancy” value is reported as 33%.
In turn, `CCC[C@@H](C(=O)c1ccc(C)cc1)N1CCCC1` [Compound O-2442, (2S)-2-Pyrrolidin-1-yl-1-p-tolyl-pentan-1-one] gave an IC50 in data set [2] above 4000 nM. Also, the IC50 in data set [1] is 3 nM. Besides, the “DAT inhibition potency, comparison of enantiomers” value in data set [1] (2S versus 2R enantiomer) was “more potent DAT inhibitor than the 2R-enantiomer”. In addition, on dopamine transporter, the “Brain entry and occupancy of DAT sites (in words)” value is “most efficient in entering the brain and occupying the majority of DAT sites”; the “[11C]CFT with Compound” value was 0.6112; the “% Occupancy” value was found to be 70%; the “% Occupancy, cerebellum levels considered background” value is recorded as 100* %.
